In patent publication US8546414B2, “Ion channel modulators and methods of use” (Vertex Pharmaceuticals Incorporated, priority 2004, dated 2013):

Experiments:
Format in all cases: cell-based
[1] = target: T1, CaV2.2 (Homo sapiens, UniProt Q00975); test: VIPR optical membrane potential assay with electrical stimulation, CaV2.2; details: Table 9, CaV 2.2 receptors
T1 construct: expressed in transfected cells; host or cells: HEK293
Summary of the method: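 HEK293 cells stably expressing CaV2.2 stained with CC2-DMPE/DiSBAC2(3) voltage-sensitive dyes (10 μM final CC2-DMPE, 30 min, RT), then compound added and cells electrically stimulated for 3-5 s. Read-out: background-subtracted 460/580 nm emission ratio; response R=Rf/Ri (post- vs pre-stimulus ratio); antagonism seen as reduced response.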

[2] = target: T2, NaV1.3 (Homo sapiens, UniProt Q9NY46); test: VIPR optical membrane potential assay with electrical stimulation, NaV1.3; details: Table 9, NaV 1.3 receptors
T2 construct: expressed in transfected cells; host or cells: HEK293
T2 sequence (Q9NY46 whole entry): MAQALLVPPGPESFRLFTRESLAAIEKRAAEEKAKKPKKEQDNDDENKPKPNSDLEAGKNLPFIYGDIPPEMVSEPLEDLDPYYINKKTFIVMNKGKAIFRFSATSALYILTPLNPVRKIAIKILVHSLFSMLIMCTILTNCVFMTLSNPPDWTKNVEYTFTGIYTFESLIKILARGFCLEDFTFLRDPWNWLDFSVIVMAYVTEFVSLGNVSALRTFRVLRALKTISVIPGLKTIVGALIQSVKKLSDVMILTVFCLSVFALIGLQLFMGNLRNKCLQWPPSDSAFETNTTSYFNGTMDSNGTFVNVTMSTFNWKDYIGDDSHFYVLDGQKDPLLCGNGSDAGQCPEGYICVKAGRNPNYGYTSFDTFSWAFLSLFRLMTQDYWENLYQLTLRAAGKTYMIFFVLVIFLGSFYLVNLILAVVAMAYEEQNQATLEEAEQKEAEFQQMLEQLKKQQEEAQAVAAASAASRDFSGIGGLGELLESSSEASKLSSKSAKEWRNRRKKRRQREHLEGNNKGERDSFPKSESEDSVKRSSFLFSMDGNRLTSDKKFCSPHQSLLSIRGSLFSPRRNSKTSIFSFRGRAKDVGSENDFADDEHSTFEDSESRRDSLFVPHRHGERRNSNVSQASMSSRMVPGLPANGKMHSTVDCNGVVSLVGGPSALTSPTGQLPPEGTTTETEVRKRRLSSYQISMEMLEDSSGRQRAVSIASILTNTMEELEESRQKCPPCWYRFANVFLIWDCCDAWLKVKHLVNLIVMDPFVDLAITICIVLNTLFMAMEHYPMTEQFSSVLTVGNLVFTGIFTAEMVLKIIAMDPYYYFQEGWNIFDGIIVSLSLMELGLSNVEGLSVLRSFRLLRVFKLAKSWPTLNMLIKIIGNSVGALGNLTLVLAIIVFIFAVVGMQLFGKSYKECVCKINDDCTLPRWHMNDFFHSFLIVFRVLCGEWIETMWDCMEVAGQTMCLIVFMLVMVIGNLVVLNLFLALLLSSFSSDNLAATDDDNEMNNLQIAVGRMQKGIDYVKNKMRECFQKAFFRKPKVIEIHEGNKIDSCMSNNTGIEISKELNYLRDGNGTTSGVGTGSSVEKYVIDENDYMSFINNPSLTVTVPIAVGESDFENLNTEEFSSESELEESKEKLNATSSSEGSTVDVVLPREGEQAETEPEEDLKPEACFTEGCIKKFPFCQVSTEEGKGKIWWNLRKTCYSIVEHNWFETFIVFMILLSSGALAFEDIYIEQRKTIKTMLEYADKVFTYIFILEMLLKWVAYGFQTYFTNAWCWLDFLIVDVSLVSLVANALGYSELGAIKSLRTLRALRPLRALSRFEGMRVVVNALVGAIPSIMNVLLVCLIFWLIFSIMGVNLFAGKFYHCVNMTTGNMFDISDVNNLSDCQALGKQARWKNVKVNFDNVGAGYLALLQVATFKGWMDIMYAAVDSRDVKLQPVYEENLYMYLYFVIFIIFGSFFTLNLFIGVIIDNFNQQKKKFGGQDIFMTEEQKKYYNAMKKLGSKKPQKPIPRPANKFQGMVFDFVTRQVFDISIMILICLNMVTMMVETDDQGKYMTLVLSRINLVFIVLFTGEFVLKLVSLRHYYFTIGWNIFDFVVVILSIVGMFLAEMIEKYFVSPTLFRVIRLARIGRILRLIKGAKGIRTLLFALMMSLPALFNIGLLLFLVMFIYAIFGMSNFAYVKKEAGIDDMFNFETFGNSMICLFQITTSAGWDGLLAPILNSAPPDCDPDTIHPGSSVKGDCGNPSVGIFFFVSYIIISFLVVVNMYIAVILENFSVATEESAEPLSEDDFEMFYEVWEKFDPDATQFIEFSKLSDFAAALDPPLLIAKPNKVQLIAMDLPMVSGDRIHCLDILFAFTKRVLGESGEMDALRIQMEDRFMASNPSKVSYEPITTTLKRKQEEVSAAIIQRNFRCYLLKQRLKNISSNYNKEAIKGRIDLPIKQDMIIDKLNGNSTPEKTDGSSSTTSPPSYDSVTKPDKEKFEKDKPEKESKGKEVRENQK
Summary of the method: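 HEK293 cells stably expressing NaV1.3, stained with CC2-DMPE (10 μM final) then DiSBAC2(3) with ABSC1, 30 min each at RT; compounds added with oxonol. Electrical stimulation for 3 s; 460/580 nm background-subtracted emission ratio Rf/Ri, normalised to tetracaine (positive) and untreated (negative) controls.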

[3] = target: NaV1.8 (Homo sapiens, UniProt Q9Y5Y9); test: VIPR optical membrane potential assay, NaV1.8 (other subtypes in an analogous mode); details: Table 9, NaV 1.8 receptors
NaV1.8, sequence (Q9Y5Y9 whole entry): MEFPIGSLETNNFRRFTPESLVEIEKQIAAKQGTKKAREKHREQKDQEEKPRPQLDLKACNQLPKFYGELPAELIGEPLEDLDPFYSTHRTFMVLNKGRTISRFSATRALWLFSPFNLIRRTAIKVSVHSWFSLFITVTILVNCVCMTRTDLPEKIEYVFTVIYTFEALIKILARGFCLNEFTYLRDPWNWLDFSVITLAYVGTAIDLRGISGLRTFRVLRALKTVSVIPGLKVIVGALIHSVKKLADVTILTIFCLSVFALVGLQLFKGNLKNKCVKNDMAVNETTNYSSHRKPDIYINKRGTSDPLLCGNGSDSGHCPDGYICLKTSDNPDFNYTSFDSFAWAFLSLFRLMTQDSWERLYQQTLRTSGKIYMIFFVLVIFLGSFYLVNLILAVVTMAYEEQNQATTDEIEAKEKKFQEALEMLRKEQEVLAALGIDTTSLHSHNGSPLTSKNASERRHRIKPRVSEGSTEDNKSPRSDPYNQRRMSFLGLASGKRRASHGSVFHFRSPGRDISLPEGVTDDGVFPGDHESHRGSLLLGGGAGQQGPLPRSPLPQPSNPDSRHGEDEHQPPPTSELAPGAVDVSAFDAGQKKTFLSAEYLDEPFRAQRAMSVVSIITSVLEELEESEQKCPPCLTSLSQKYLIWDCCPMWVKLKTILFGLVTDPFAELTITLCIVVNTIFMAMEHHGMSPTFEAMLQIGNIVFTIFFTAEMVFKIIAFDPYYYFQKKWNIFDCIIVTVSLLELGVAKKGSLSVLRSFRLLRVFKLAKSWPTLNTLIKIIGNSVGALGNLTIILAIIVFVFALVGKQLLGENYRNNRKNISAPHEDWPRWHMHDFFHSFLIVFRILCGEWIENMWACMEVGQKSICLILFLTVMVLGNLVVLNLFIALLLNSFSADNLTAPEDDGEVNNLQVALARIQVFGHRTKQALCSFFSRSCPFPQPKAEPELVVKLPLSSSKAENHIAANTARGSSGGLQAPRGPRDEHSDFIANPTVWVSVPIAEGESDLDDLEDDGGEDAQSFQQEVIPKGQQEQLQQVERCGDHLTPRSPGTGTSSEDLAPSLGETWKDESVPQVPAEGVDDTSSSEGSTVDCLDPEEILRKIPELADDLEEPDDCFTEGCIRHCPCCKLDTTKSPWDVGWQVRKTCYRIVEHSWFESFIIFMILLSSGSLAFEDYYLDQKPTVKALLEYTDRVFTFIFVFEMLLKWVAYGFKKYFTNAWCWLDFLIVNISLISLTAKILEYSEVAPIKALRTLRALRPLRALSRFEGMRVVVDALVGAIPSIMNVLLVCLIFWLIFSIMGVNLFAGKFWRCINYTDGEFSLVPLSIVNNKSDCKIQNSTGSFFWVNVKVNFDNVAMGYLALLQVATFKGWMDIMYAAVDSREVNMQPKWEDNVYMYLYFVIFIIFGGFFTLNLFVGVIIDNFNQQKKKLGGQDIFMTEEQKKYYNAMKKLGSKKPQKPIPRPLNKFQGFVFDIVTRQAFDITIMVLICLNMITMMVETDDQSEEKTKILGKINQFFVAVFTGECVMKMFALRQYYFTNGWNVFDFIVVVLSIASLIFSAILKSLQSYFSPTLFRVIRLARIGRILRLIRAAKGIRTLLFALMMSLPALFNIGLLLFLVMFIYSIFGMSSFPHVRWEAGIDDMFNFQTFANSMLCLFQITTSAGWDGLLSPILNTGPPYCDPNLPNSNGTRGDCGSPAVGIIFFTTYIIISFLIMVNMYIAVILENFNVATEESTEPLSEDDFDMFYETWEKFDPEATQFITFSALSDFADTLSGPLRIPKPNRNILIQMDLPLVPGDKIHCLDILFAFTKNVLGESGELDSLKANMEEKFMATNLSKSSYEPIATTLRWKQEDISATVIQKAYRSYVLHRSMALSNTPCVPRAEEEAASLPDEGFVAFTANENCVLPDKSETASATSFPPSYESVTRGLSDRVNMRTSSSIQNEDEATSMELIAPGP
Procedure: Antagonist properties of test compounds were assessed as follows. Cells expressing the NaV of interest were placed into microtiter plates. After an incubation period, the cells were stained with fluorescent dyes sensitive to the transmembrane potential. The test compounds were added to the microtiter plate. The cells were stimulated with either chemical or electrical means to evoke a NaV dependent membrane potential change from unblocked channels, which was detected and measured with trans-membrane potential-sensitive dyes. Antagonists were detected as a decreased membrane potential response to the stimulus.
24 hours before the assay on VIPR, CHO cells endogenously expressing a NaV 1.2 type voltage-gated NaV are seeded in 96-well poly-lysine coated plates at 60,000 cells per well. […] Plates are incubated in the dark for 30 minutes at room temperature. • 4) While the cells are being stained with coumarin, a […] oxonol solution in BS#2 is prepared. […] As before, the residual volume should be 40 μL. • 6) Upon removing the bath, the cells are loaded with 80 μL of the DiSBAC2(3) solution, after which test compound, dissolved in DMSO, is added to achieve the desired test concentration to each well from the drug addition plate and mixed thoroughly. The volume in the well should be roughly 121 μL. The cells are then incubated for 20-30 minutes. • 7) Once the incubation is complete, the cells are ready to be assayed on VIPR® with a sodium addback protocol. 120 μL of Bath solution #1 is added to stimulate the NaV dependent depolarization. […] tetracaine was used as an antagonist positive control for block of the NaV channel. Analysis of VIPR® Data:
The following is an example of how NaV1.3 inhibition activity is measured using the optical membrane potential method#2. Other subtypes are performed in an analogous mode in a cell line expressing the NaV of interest.

| IC50 [1] [µM] | IC50 [2] [µM] | IC50 [3] [µM] | Compound |
| --- | --- | --- | --- |
| > 10 | > 10 | > 10 | CC(C)N(C(=O)c1cnc(N2CCN(C)CC2)nc1-c1ccccc1F)c1ccccc1 [compound 23] |
| 2 to 10 | > 10 | > 10 | CC(C)N(C(=O)c1cnc(N2CCCCC2)nc1-c1ccccc1F)c1cccc(O)c1 [compound 66] |
| 2 to 10 | 2 to 10 | > 10 | O=C(NCCOc1ccccc1)c1cnc(N2CCOCC2)nc1-c1ccc(Oc2ccccc2)cc1 [compound 121] |
| 2 to 10 | 2 to 10 | > 10 | CC(C)N(C(=O)c1cnc(N2CCC3CCCCC3C2)nc1-c1ccccc1F)c1ccc2c(c1)OCCO2 (stereo not drawn) [compound 151] |
| > 10 | > 10 | > 10 | N=C(N)NCCCNC(=O)c1cnc(N2CCC3CCCCC3C2)nc1-c1ccccc1F (stereo not drawn) [compound 102] |
| > 10 | > 10 | > 10 | CC(C)N(C(=O)c1cnc(N2CCOCC2)nc1-c1ccccc1F)c1cccc(N(C)C)c1 [compound 111] |
| > 10 | > 10 | > 10 | CC(C)N(Cc1ccccc1)C(=O)c1cnc(N2CCN(C)CC2)nc1-c1ccccc1F [compound 167] |
| 2 to 10 | 2 to 10 | > 10 | COc1cccc(CN(C(=O)c2c(C)nc(N3CCOCC3)nc2-c2ccccc2F)C(C)C)c1 [compound 186] |
| < 2 | > 10 | > 10 | CC(C)N(Cc1ccccc1)C(=O)c1cnc(N2CCC3CCCCC3C2)nc1-c1ccccc1F (stereo not drawn) [compound 92] |
| > 10 | > 10 | > 10 | CN(CCc1ccccc1)C(=O)c1cnc(N2CCOCC2)nc1-c1ccccc1F [compound 199] |
| > 10 | > 10 | > 10 | Cc1nc(N2CCOCC2)nc(-c2ccccc2F)c1C(=O)N(c1ccccc1)C(C)C [compound 25] |
| > 10 | 2 to 10 | > 10 | COc1cccc(N(C(=O)c2cnc(N3CCOCC3)nc2-c2ccccc2F)C2CCC2)c1 [compound 190] |
| > 10 | > 10 | > 10 | O=C(c1cnc(N2CCOCC2)nc1-c1ccccc1F)N(Cc1cccnc1)C1CC1 [compound 138] |
| 2 to 10 | 2 to 10 | > 10 | CC1CCc2ccccc2N1C(=O)c1cnc(N2CCOCC2)nc1-c1ccccc1F (stereo not drawn) [compound 52] |
| > 10 | > 10 | > 10 | O=C(c1cnc(N2CCOCC2)nc1-c1ccccc1F)N(Cc1cnc2ccccc2c1)C1CC1 [compound 99] |
| 2 to 10 | > 10 | > 10 | O=C(c1cnc(N2CCOCC2)nc1-c1ccccc1F)N(Cc1cccc(C(F)(F)F)c1)C1CC1 [compound 195] |
| < 2 | 2 to 10 | > 10 | COc1cccc(CN(C(=O)c2cnc(N3Cc4ccccc4C3)nc2-c2ccccc2F)C(C)C)c1 [compound 134] |
| > 10 | > 10 | > 10 | O=C(NC1Cc2ccccc2C1)c1cnc(N2CCOCC2)nc1-c1ccccc1F [compound 33] |
| > 10 | > 10 | > 10 | COc1cccc(Nc2ncc(C(=O)N(Cc3ccccc3)C(C)C)c(-c3ccccc3F)n2)c1 [compound 15] |
| 2 to 10 | > 10 | > 10 | COc1cccc(N(C(=O)c2cnc(N3CCCCC3)nc2-c2ccccc2Cl)C2CCCCC2)c1 [compound 115] |
| > 10 | > 10 | > 10 | COc1cccc(N(C(=O)c2cnc(N3CCCCC3)nc2-c2ccccc2Cl)C2CC2)c1 [compound 58] |
| > 10 | 2 to 10 | > 10 | CCC(COC)N(Cc1ccccc1)C(=O)c1cnc(N2CCOCC2)nc1-c1ccccc1F (stereo not drawn) [compound 113] |
| < 2 | < 2 | > 10 | COc1cccc(CN(C(=O)c2cnc(N3CCC4CCCCC4C3)nc2-c2ccccc2F)C(C)C)c1 (stereo not drawn) [compound 162] |
| 2 to 10 | 2 to 10 | > 10 | COc1cccc(N(C(=O)c2cnc(N3CCSCC3)nc2-c2ccccc2F)C(C)C)c1 [compound 62] |
| 2 to 10 | 2 to 10 | 2 to 10 | O=C(c1cnc(N2CCCCC2)nc1-c1ccccc1F)N(Cc1ccccc1)C1CC1 [compound 90] |

| IC50 [1] [µM] | IC50 [2] [µM] | IC50 [3] [µM] | Compound |
| --- | --- | --- | --- |
| 2 to 10 | 2 to 10 | > 10 | O=C(c1cnc(N2CCSCC2)nc1-c1ccccc1F)N(Cc1ccc(F)cc1)C1CC1 [compound 48] |
| 2 to 10 | 2 to 10 | 2 to 10 | CC(C)(C)c1ccc(CN(C(=O)c2cnc(N3CCOCC3)nc2-c2ccccc2F)C2CC2)cc1 [compound 161] |
| > 10 | > 10 | > 10 | CC(C)N(Cc1ccccc1)C(=O)c1cnc(Nc2nc3ccccc3[nH]2)nc1-c1ccccc1F [compound 106] |
| > 10 | > 10 | > 10 | O=C(NC1CCCC1)c1cnc(N2CCOCC2)nc1-c1ccccc1F [compound 19] |
| > 10 | > 10 | – | CC(C)N(Cc1ccccc1)C(=O)c1cnc(N2CCCC2)nc1-c1ccc(C#N)cc1 [compound 211] |
| > 10 | > 10 | – | O=C(c1cnc(NCc2ccc3c(c2)OCO3)nc1-c1ccc(-c2ccccc2)cc1)N1CCCCC1 [compound 342] |
| 2 to 10 | > 10 | – | CCN(Cc1cccc(C)c1)C(=O)c1cnc(NC2CCCC2)nc1-c1ccc(C#N)cc1 [compound 239] |
| > 10 | > 10 | – | CCC(C)NC(=O)c1cnc(N(C)CC(C)C)nc1-c1ccc(C#N)cc1 (stereo not drawn) [compound 230] |
| > 10 | > 10 | – | CCN(Cc1ccccc1)C(=O)c1cnc(N2CCCC(C(N)=O)C2)nc1-c1ccc(C#N)cc1 (stereo not drawn) [compound 259] |
| > 10 | > 10 | – | CCN(Cc1cccc(C)c1)C(=O)c1cnc(N2CCN(C(C)=O)CC2)nc1-c1ccc(C#N)cc1 [compound 208] |
| > 10 | > 10 | – | CC(=O)NCCNc1ncc(C(=O)N(Cc2ccccc2)C(C)C)c(-c2ccc(C#N)cc2)n1 [compound 319] |
| > 10 | > 10 | – | CCCCNc1ncc(C(=O)N2CC(C)CC(C)C2)c(-c2ccc(C#N)cc2)n1 (stereo not drawn) [compound 320] |
| 2 to 10 | > 10 | – | CC(C)CN(C)C(=O)c1cnc(NCCc2cccc(F)c2)nc1-c1ccc(C#N)cc1 [compound 295] |
| > 10 | > 10 | – | N#Cc1ccc(-c2nc(NC3CCCCC3)ncc2C(=O)N2CCCC2)cc1 [compound 210] |
| > 10 | > 10 | – | CCCCNC(=O)c1cnc(N(C)CCc2ccc(OC)c(OC)c2)nc1-c1ccc(C#N)cc1 [compound 299] |
| > 10 | > 10 | – | COCCCNC(=O)c1cnc(N2CCOCC2)nc1-c1ccc(C#N)cc1 [compound 349] |
| > 10 | > 10 | – | CC1CC(C)CN(C(=O)c2cnc(N3CCOCC3)nc2-c2ccc(C#N)cc2)C1 (stereo not drawn) [compound 333] |
| > 10 | > 10 | – | N#Cc1ccc(-c2nc(NCC3CCCCC3)ncc2C(=O)NCCc2cccc(F)c2)cc1 [compound 345] |
| > 10 | > 10 | – | Cc1cccc(-c2nc(N3CCOCC3)ncc2C(=O)NCc2cccc(C(F)(F)F)c2)c1 [compound 293] |
| > 10 | > 10 | – | CCCCNC(=O)c1cnc(NCCCOC)nc1-c1cccc(C)c1 [compound 332] |
| > 10 | > 10 | – | COCCNc1ncc(C(=O)N2CCOCC2)c(-c2cccc(C)c2)n1 [compound 321] |
| > 10 | > 10 | – | CCN(Cc1ccccc1)C(=O)c1cnc(N2CCOCC2)nc1-c1ccc(C#N)cc1 [compound 313] |
| > 10 | > 10 | – | CCN(Cc1cccc(C)c1)C(=O)c1cnc(NCCNC(C)=O)nc1-c1ccccc1F [compound 308] |
| > 10 | > 10 | – | CCC(C)NC(=O)c1cnc(N(C)CCc2ccc(OC)c(OC)c2)nc1-c1ccc(C#N)cc1 (stereo not drawn) [compound 331] |
| > 10 | > 10 | – | COCCNc1ncc(C(=O)N(Cc2ccccc2)C(C)C)c(-c2ccccc2F)n1 [compound 300] |
